From US6458585B1, “Cytokine-free culture of dendritic cells” (Nexell Therapeutics Inc., priority 1996, dated 2002)

Key:
Format in all cases: cell-based, human
[1] = test system: T cells; test: Allogeneic MLR with bulk PBMNC cultures grown with non-cytokine additives
Procedure: MLR's were setup using T cells as responders and dendritic cell enriched cultures as antigen presenters. Sheep red blood cells were prepared and used to erythrocyte rosette T cells from a MNC preparation as described in “Current Protocols in Immunology”, John Wiley & Sons Inc, 1995. Vol. 2, 7.2.1-7.2.4. Erythrocyte+(E+ ) T cells were resuspended to 1×10^6 cells/ml in RPMI 1640/10% FCS. Dendritic cells were resuspended to 1×10^6 cells/ml in RPMI 1640/10% FCS and mitomycin C was added at 25 ug/ml to inhibit proliferation. The tubes were incubated at 37° C. for 30 min. then washed 3 times with PBS-CMF/1% HA. […] […] The appropriate control wells were also prepared. Plates were incubated for 4 or 5 days at 37° C.
Each well was pulsed with 1 uCi of ^3H-thymidine in RPMI 1640/10% FCS. Plates were incubated overnight at 37° C.
Plates were harvested onto glass fiber filter strips using a cell harvester. Discs were placed into scintillation vials containing scintillation cocktail and samples were counted using a beta radiation counter.
(§1) Cytospin slide preparation, Wright-Geimsa and immunohistochemical staining of the cultured cells were conducted as described in Example 1 and 2 above. Mixed lymphocyte reactions (MLR's) were setup using T cells (responders) and dendritic cell enriched cultures (stimulators) from bulk PBMNC cultures, as described above in Example 1.
The functional capacity of cultured cells to induce T cell proliferation was measured in an allogeneic MLR. […] At the greatest ratio of 1:100, the differences in capacity to induce T cell proliferation is marginal between the GM-CSF/IL-4 cultured cells and the non-cytofine additive cultured cells.

[2] = test system: Bulk PBMNC; test: Concentration, viability and total cells of bulk PBMNC cultured with non-cytokine additives in PL2417; conditions: Day 7, PL2417 container, X-VIVO 15
Procedure: (§2) Culture of Bulk PBMNC: PBMNC cells were cultured in X-VIVO 15™ supplemented with 2 mM L- glutamine. Cultures were initiated at 5×^05 cells/ml in PL2417 gas-permeable containers (20 ml). GM-CSF and IL-4 were added to the cultures at final concentrations of 50 ng/ml and 1000 U/ml or non-cytokine additives such as Vitamin D3 at 2.5 uM, Vitamin E at 0.1%, Linoleic Acid at 5 ug/ml, or Ca++ Ionophore at 10 mM. Addition and subtraction of cells, media, and growth factors to and from PL2417 gas-permeable containers was accomplished by spiking a Sampling Site Coupler into the sample port of the container followed by use of syringes and needles. Cells were cultured in a 5% CO2, ambient O2, 37° C. humidified incubator for 7 days.
The next set of experiments evaluated only 4 of the non-cytokine additives. These 4 were determined to have the highest ability to induce DC generation from PBMNC. The 4 non-cytokine additives examined were Vitamin D3, Vitamin E, Ca^++ Ionophore, and Linoleic Acid. These additives were compared to GM-CSF/IL-4. Bulk PBMNC were initiated at 5×10^5 cells/ml in X-VIVO 15™ using PL2417 gas-permeable containers (20 ml per container).

[3] = test system: Bulk PBMNC; test: Flow cytometry phenotype of bulk PBMNC cultures with non-cytokine additives; conditions: Day 7
Procedure: as §2
Cultured cells were phenotyped as described in Example 1 above for the following markers: […]

[4] = test system: Bulk PBMNC; test: Morphologically identified dendritic cells in bulk PBMNC cultures with non-cytokine additives; conditions: for % DC: Day 7; for TOTAL # OF DC: Day 7, projected in culture
Procedure: (§3) Cytofunnels were attached to microscope slides. 50,000 to 100,000 cells were removed from each culture and resuspended in approximately 100 to 200 ul of PBS-CMF. Slides were placed in the Cytospin® centrifuge and spun at 100 rpm for 4 min. Cytofunnels were removed from the slides and the slides were air dried for 1 minute. Ten drops of Wright-Geimsa stain were placed onto each slide and allowed to fix for 1 to 2 minutes. Ten drops of water were added to each slide and allowed to sit for 2 to 4 minutes. The slides were rinsed and air dried.
(§4) Reading of Cytospin Slides: Slides were read under phase contrast microscopy, 40× and 60× oil magnification. One hundred cells were identified and characterized morphologically as either dendritic cells or non-dendritic cells (lymphocytes and monocyte, or CD34+-derived cells in those cases). Digital images were taken using a color monitor and color video printer.
as §2, §1

[5] = test system: Bulk PBMNC; test: S100+ cells in bulk PBMNC cultures with non-cytokine additives; conditions: for % S100+: Day 7; for TOTAL # OF S100+: Day 7, projected in culture; for percent of S100+ cells: day 7, average
Procedure: (§5) Immunocytochemical staining: PBS (phosphate buffered saline) was made by dissolving 5 PBS tablets into 1000 ml millipore water. Cytospin slides were soaked in PBS. Endogenous peroxidase activity was blocked by treating slides with hydrogen peroxide/PBS (2 ml 30% H2O2+30 ml PBS) for 10 min. Slides were rinsed with PBS one time. Non-specific binding sites were blocked by incubating with normal serum matching source of secondary antibody (i.e. if secondary antibody is biotinylated goat-anti-mouse, used normal goat serum) at room temp. for 15 min. in a humidified environment. Excess serum was shaken from slides and placed 100 ul of primary antibody on slide, making sure cells are covered with liquid and incubated in humidified environment, room temp, for one hour. Negative control slides were incubated with normal serum for this hour. Slides were rinsed 3 times with PBS. Slides were incubated with biotinylated antibody reactive against the primary antibody (i.e. if primary antibody is mouse-anti-human, use a biotinylated goat-anti-mouse antibody) for 1 hour in humidity. Slides were rinsed 3 times with PBS. Slides were incubated with streptavidin-peroxidase, 2 drops/slide, for 30 min. in humidity. Slides were rinsed 3 times with PBS.
(§6) Chromagen solution was made with 5 ml millipore water+2 drops of chromagen buffer+1 drop of concentrated chromagen+1 drop of substrate, and 4-5 drops were added to each slide. […] Slides were counterstained with hematoxylin for about 5 min, or until cell nuclei were stained purple. Cells were rinsed with tap water and allowed to air dry. Slides were covered with crystal mount and oven dried at 80 degrees for 15 min. Slides were allowed to cool, then coversliped with mounting medium.
as §2, §1
The S100 protein is a nerve cell protein that has been associated with dendritic cells. In Table 47, at day 7 of culture, the highest percent of S100+ cells was present in the GM-CSF/IL-4 culture (13%).

[6] = test system: adherent PBMNC; test: S100 immunohistochemistry of plastic adherent cells cultured with non-cytokine additives; conditions: for percentage of S100+ cells: without GM-CSF added to additives
Procedure: as §5, with “Endogenous peroxidase activity was blocked by treating slides with hydrogen peroxide/PBS (2 ml 30% H2O2+30 ml PBS) for 10 min.” left out
as §6
(§7) Enrichment and Culture of Adherent Cells Using Polystyrene Tissue Culture Plates: PBMNC were resuspended in culture media (X-VIVO 15™+10% autologous serum) at 2×10^6 cells/ml. Cells were placed into 48 well polystyrene tissue culture plates […] and incubated for 2 hours in a 5% CO2, ambient O2, 37° C. humidified incubator. Non-adherent cells were removed from the plates then wells were rinsed with X-VIVO 15™ containing no serum. Cells remaining in the wells were adherent cells. These cells were cultured by adding 2 ml of X-VIVO 15™ to each well plus GM-CSF and IL-4 at final concentrations of 50 ng/ml and 1000 U/ml or the following: cAMP at 0.5 mM, dibutyryl cAMP at 0.1 mM, NaF at 0.25 mM, theophylline at 0.5 mM, PGE at 0.1 mM, Vitamin D3 at 2.5 uM, Vitamin E at 0.1%, Retinoic Acid at 10^−6 M, PMA at 1 pM, Linoleic Acid at 5 ug/ml, or Ca^++ Ionophore at 10 mM. Furthermore, cells were also cultured with the above non-cytokine additives plus GM-CSF at 50 ng/ml. Cells were cultured in a 5% CO2, ambient O2, 37° C. humidified incubator for 7 days.
as §1
(§8) Results: In the set of experiments using plastic adherent cells grown in polystyrene tissue culture plates, a Day 0 analysis of the cells was not performed. However, these cultures were analyzed for the presence of DC on days 4 and 7. Analysis perfomed were cell counts, viability via propidium iodide, morphology under Wright-Geimsa staining, and immunohistochemical staining using an anti-S100 antibody.

[7] = test system: adherent PBMNC; test: DC morphology (Wright-Geimsa) of plastic adherent cells cultured with non-cytokine additives
Procedure: as §3, §4, §7, §1, §8

[8] = test system: adherent PBMNC; test: Cell counts and viability of plastic adherent cells cultured with non-cytokine additives in polystyrene plates; set-up: % VIABLE: concentration or dose not given beside the values; conditions: for % VIABLE: propidium iodide
Procedure: Viability Determination: Prior to acquisition, 5 ul propidium iodide (PI) was added to each tube for use as a viability check. The cells were vortexed and acquired within 10 min of PI addition.
as §7, §8

[9] = Day 7, Cell Culture:T cell Ratio 1:1
[10] = Day 7, Cell Culture:T cell Ratio 1:10
[11] = Day 7, Cell Culture:T cell Ratio 1:100

Structure (SMILES)	Allogeneic MLR. Increase Over Background Proliferation [1, 9]	Allogeneic MLR. Increase Over Background Proliferation [1, 10]	Allogeneic MLR. Increase Over Background Proliferation [1, 11]	CELLS/ML [2]	TOTAL CELLS [2]	VIABILITY [2]	Percent of Phenotype in Culture: CD1a-PE [3]	Percent of Phenotype in Culture: CD14-PE [3]	Percent of Phenotype in Culture: CD80-PE [3]	Percent of Phenotype in Culture: CD86-PE [3]	% DC [4]	TOTAL # OF DC [4]	% S100+ [5]	TOTAL # OF S100+ [5]	percent of S100+ cells [5]	further results
Cc1c(C)c2c(c(C)c1O)CCC(C)(CCCC(C)CCCC(C)CCCC(C)C)O2 (mixture of isomers) [VIT E]	6.3	2.6	1.7	1.87E + 06 cells/ml	7.52E + 06	82.41%	0.08%	0.73%	1.97%	2.75%	4.00%	2.82E+05	8.00%	6.01E + 05	–	–
Cc1c(C)c2c(c(C)c1O)CCC(C)(CCCC(C)CCCC(C)CCCC(C)C)O2 (mixture of isomers) [Vitamin E]	–	–	–	–	–	–	–	–	–	–	–	–	–	–	equivalent average percentages	percentage of S100+ cells ([6]; day 4): 19%; average total number of morphologically identified DC projected in culture ([4]; day 7): lowest total number
CNc1ccc2oc(CC3OC4(CCC3C)OC(C(C)C(=O)c3ccc[nH]3)C(C)CC4C)nc2c1C(=O)O (stereo not drawn) [Ca ++ Iono]	–	–	–	2.22E + 06 cells/ml	8.29E + 06	83.72%	–	–	–	–	–	–	7.50%	6.17E + 05	–	% S100+ ([6]; Day 4, without GM-CSF): 17.00%; % S100+ ([6]; Day 7, with GM-CSF present): 26.50%; % DC ([7]; Day 4, without GM-CSF): 2.50%; % DC ([7]; Day 7, with GM-CSF present): 4.50%; TOTAL CELLS ([8]; Day 4, without GM-CSF): 1.69E + 05; % VIABLE ([8]; Day 4, without GM-CSF): 74.04%; TOTAL CELLS ([8]; Day 7, with GM-CSF present): 1.05E + 05; % VIABLE ([8]; Day 7, with GM-CSF present): 82.69%
CNc1ccc2oc(CC3OC4(CCC3C)OC(C(C)C(=O)c3ccc[nH]3)C(C)CC4C)nc2c1C(=O)O (stereo not drawn) [Ca ++ lono]	–	–	–	–	–	–	0.04%	0.26%	2.21%	2.32%	–	–	–	–	–	–
CNc1ccc2oc(CC3OC4(CCC3C)OC(C(C)C(=O)c3ccc[nH]3)C(C)CC4C)nc2c1C(=O)O (stereo not drawn) [Ca++ Iono]	4.8	1.8	0.9	–	–	–	–	–	–	–	7.00%	5.74E+05	–	–	–	–
CNc1ccc2oc(C[C@H]3O[C@@]4(CC[C@H]3C)O[C@H]([C@H](C)C(=O)c3ccc[nH]3)[C@H](C)C[C@H]4C)nc2c1C(=O)O [Ca^++ Ionophore, A23187]	–	–	–	–	–	–	–	–	–	–	–	–	–	–	equivalent average percentages	percentage of S100+ cells ([6]; day 4): 17%; percentage of S100+ cells ([6]; day 7): next highest percentages; morphologically identified DC ([7]; day 7, without GM-CSF added to additives): next highest percentages; fold fewer DC (average total number projected in culture) than GM-CSF/IL-4 cultures ([4]; day 7): approximately 4 fold
CCCCC/C=C\C/C=C\CCCCCCCC(=O)O [Linoleic Add]	–	–	–	–	–	–	0.08%	0.46%	2.61%	2.72%	–	–	–	–	–	–
CCCCC/C=C\C/C=C\CCCCCCCC(=O)O [Linoleio Acid]	–	–	–	–	9.18E + 06	87.77%	–	–	–	–	–	–	8.50%	7.75E + 05	–	–
C=C1CCC(O)CC1=CC=C1CCCC2(C)C1CCC2C(C)CCCC(C)C (stereo not drawn) [VIT D3]	6.9	2.7	1.4	2.11E + 06 cells/ml	8.04E + 06	84.51%	0.10%	0.53%	2.65%	2.62%	6.50%	5.12E+05	5.00%	4.16E + 05	–	–
C=C1CC[C@H](O)C/C1=C/C=C1\CCC[C@]2(C)[C@@H]([C@H](C)CCCC(C)C)CC[C@@H]12 [Vitamin D3]	–	–	–	–	–	–	–	–	–	–	–	–	–	–	lowest average percent	percentages of S100+ cells ([6]; day 7, additive added to GM-CSF 50 ng/ml): greatest percentages of S100+ cells; fold fewer DC (average total number projected in culture) than GM-CSF/IL-4 cultures ([4]; day 7): approximately 4 fold
